Laboratory results taken from patent US20170058314A1, “NOVEL METHODOLOGY FOR IDENTIFYING ANTI-PERSISTER ACTIVITY AND ANTIMICROBIAL SUSCEPTIBILITY FOR BORRELIA BURGDORFERI AND OTHER BACTERIA” (priority 2014, published 2017).

Tested on: M. tuberculosis H37Ra WT
Format: cell-based, Mycobacterium tuberculosis

Structure (SMILES): NC(=O)c1cnccn1 [PZA, pyrazinamide]
- residual viability of H37Ra WT compared with PZA resistant mutants: obviously decreased
